Data published in publication PMC13308190, “Endothelial progenitor cell susceptibility to DNA damaging and DDR-modulating compounds determines endothelial differentiation accuracy” (Stem Cell Research & Therapy, 2026).

What was measured:
Format in all cases: cell-based, mouse
[1] = tested on: EC d4 (endothelial progenitor cells); experiment: Western blot protein expression (densitometry); settings: EC d4 48 h
Method: (§1) Total protein cell extracts were obtained upon sonication in RIPA buffer (EpiShearTM Probe sonicator, Active Motif [La Hulpe, Belgium]). Protein concentrations were determined using the DC Protein Assay (BioRad [Munich, Germany]). Extracts were supplemented with Roti®-Load buffer (Carl Roth GmbH [Karlsruhe, Germany]) followed by heating (95 °C for 5 min). 20 µg of protein was separated by SDS-PAGE and transferred onto nitrocellulose membrane. After blocking (5% non-fat milk in TBS/0.1% Tween 20 or 5% BSA in TBS/0.1% Tween 20) (1 h, RT) membrane was incubated with primary antibodies (1:500–5000; overnight, 4 °C). After washing with TBS/0.1% Tween 20, peroxidase-conjugated secondary antibody (1:2000) was added (2 h, RT) and bands were visualized using ChemiDoxTM Touch imaging system (BioRad, Munich, Germany).

[2] = tested on: EC d6 (endothelial-like cells); experiment: Western blot protein expression (densitometry); settings: EC d6 24 h
Method: as §1

mESC [3] = experiment: Western blot protein expression (densitometry); settings: mESC 24 h
Method: as §1

EC d4 = experiment: DNA fiber spreading assay; settings: EC d4 48 h; HU: 5 mM, 1 h
Method: (§2) To analyze DNA replication fork progression, the DNA fiber spreading assay was performed. Briefly, cells were pulse-labeled with 20 µM CldU (20 min, 37 °C, 5% C0_2) and immediately afterwards with 200 µM IdU (20 min, 37 °C, 5% C02). Cell suspension was applied onto glass slides followed by cell lysis (0.5% SDS, 200 mM Tris–HCl, 50 mM EDTA). After incubation (6 min, RT), slides were tilted upwards to stretch the fibers, dried 6 min lying horizontally flat and fixed (5 min, RT) in methanol: acetic acid (3:1). After drying (7 min, lying horizontally flat) slides were stored overnight in 70% ethanol (4 °C). The next day samples were incubated in 100% methanol (5 min, RT) followed by denaturation in 2.5 M HCl (1 h, RT) and blocking (5% BSA in PBS, 1 h, 37 °C). DNA Fibers were stained with rat anti-BrdU (1:40) for CldU detection and mouse anti-BrdU (1:70) for IdU detection (in 0.5% BSA/PBS; 1 h, RT). After washing (0.05% Tween 20 in PBS and PBS) incubation with secondary antibodies anti-rat 488 (1:400) and anti-mouse 555 (1:250) was performed (1 h, RT, 0.5% BSA in PBS). Following washing with 0.05% Tween 20 in PBS and PBS, the slides were mounted with Fluoroshield (Sigma [Steinheim, Germany]). DNA fibers were analyzed microscopically (Olympus BX43 fluorescence microscope [40 objective]). The length of CldU (green) and IdU (red) tract was measured using ImageJ software, analyzing 200 fibers per experimental condition.

EC d6 = experiment: DNA fiber spreading assay; settings: EC d6 24 h; HU: 5 mM, 1 h
Method: as §2

mESC [4] = experiment: DNA fiber spreading assay; settings: mESC 24 h; HU: 5 mM, 1 h
Method: as §2

**Q.** Which results are given for COc1cc([C@@H]2c3cc4c(cc3[C@@H](O[C@@H]3O[C@@H]5CO[C@@H](C)O[C@H]5[C@H](O)[C@H]3O)[C@H]3COC(=O)[C@H]23)OCO4)cc(OC)c1O [Eto, etoposide]?
**A.** CHK1 protein ([1]; Eto lane of blot Fig 5D - B02): 0.7 Fold of mESC; RAD51 protein ([1]; Eto lane of blot Fig 5D - B02): 1.0 Fold of mESC; p-CHK2 protein ([1]; Eto lane of blot Fig 5D - B02): 0.4 Fold of mESC; p-KAP1 protein ([1]; Eto lane of blot Fig 5D - B02): 0.0 Fold of mESC; p-RPA32 protein ([1]; Eto lane of blot Fig 5D - B02): 0.4 Fold of mESC; p-p53 protein ([1]; Eto lane of blot Fig 5D - B02): 1.7 Fold of mESC; CHK1 protein ([1]; Eto lane of blot Fig 5D - Dox): 1.6 Fold of mESC; RAD51 protein ([1]; Eto lane of blot Fig 5D - Dox): 0.1 Fold of mESC; p-CHK2 protein ([1]; Eto lane of blot Fig 5D - Dox): 0.5 Fold of mESC; p-KAP1 protein ([1]; Eto lane of blot Fig 5D - Dox): 0.0 Fold of mESC; p-RPA32 protein ([1]; Eto lane of blot Fig 5D - Dox): 0.5 Fold of mESC; p-p53 protein ([1]; Eto lane of blot Fig 5D - Dox): 4.8 Fold of mESC; CHK1 protein ([1]; Eto lane of blot Fig 5D - EST): 0.7 Fold of mESC; RAD51 protein ([1]; Eto lane of blot Fig 5D - EST): 1.2 Fold of mESC; p-CHK2 protein ([1]; Eto lane of blot Fig 5D - EST): 1.2 Fold of mESC; p-KAP1 protein ([1]; Eto lane of blot Fig 5D - EST): 0.0 Fold of mESC; p-RPA32 protein ([1]; Eto lane of blot Fig 5D - EST): 0.4 Fold of mESC; p-p53 protein ([1]; Eto lane of blot Fig 5D - EST): 3.0 Fold of mESC; CHK1 protein ([2]; Eto lane of blot Fig 5D - B02): 0.37 Fold of mESC; RAD51 protein ([2]; Eto lane of blot Fig 5D - B02): 0.38 Fold of mESC; p-CHK2 protein ([2]; Eto lane of blot Fig 5D - B02): 0.04 Fold of mESC; p-KAP1 protein ([2]; Eto lane of blot Fig 5D - B02): 0.00 Fold of mESC; p-RPA32 protein ([2]; Eto lane of blot Fig 5D - B02): 0.04 Fold of mESC; p-p53 protein ([2]; Eto lane of blot Fig 5D - B02): 1.45 Fold of mESC; CHK1 protein ([2]; Eto lane of blot Fig 5D - Dox): 0.6 Fold of mESC; RAD51 protein ([2]; Eto lane of blot Fig 5D - Dox): 0.8 Fold of mESC; p-CHK2 protein ([2]; Eto lane of blot Fig 5D - Dox): 0.2 Fold of mESC; p-KAP1 protein ([2]; Eto lane of blot Fig 5D - Dox): 0.0 Fold of mESC; p-RPA32 protein ([2]; Eto lane of blot Fig 5D - Dox): 0.1 Fold of mESC; p-p53 protein ([2]; Eto lane of blot Fig 5D - Dox): 3.7 Fold of mESC; CHK1 protein ([2]; Eto lane of blot Fig 5D - EST): 0.1 Fold of mESC; RAD51 protein ([2]; Eto lane of blot Fig 5D - EST): 0.5 Fold of mESC; p-CHK2 protein ([2]; Eto lane of blot Fig 5D - EST): 0.4 Fold of mESC; p-KAP1 protein ([2]; Eto lane of blot Fig 5D - EST): 0.0 Fold of mESC; p-RPA32 protein ([2]; Eto lane of blot Fig 5D - EST): < 0.1 Fold of mESC; p-p53 protein ([2]; Eto lane of blot Fig 5D - EST): 2.0 Fold of mESC; CHK1 protein (mESC [3]; Eto lane of blot Fig 5D - B02): 0.9 Fold of mESC; RAD51 protein (mESC [3]; Eto lane of blot Fig 5D - B02): 1.9 Fold of mESC; p-CHK2 protein (mESC [3]; Eto lane of blot Fig 5D - B02): 0.8 Fold of mESC; p-KAP1 protein (mESC [3]; Eto lane of blot Fig 5D - B02): 49.01 Fold of mESC; p-RPA32 protein (mESC [3]; Eto lane of blot Fig 5D - B02): 0.7 Fold of mESC; p-p53 protein (mESC [3]; Eto lane of blot Fig 5D - B02): 2.1 Fold of mESC; CHK1 protein (mESC [3]; Eto lane of blot Fig 5D - Dox): 2.4 Fold of mESC; RAD51 protein (mESC [3]; Eto lane of blot Fig 5D - Dox): 1.9 Fold of mESC; p-CHK2 protein (mESC [3]; Eto lane of blot Fig 5D - Dox): 1.6 Fold of mESC; p-KAP1 protein (mESC [3]; Eto lane of blot Fig 5D - Dox): 29.7 Fold of mESC; p-RPA32 protein (mESC [3]; Eto lane of blot Fig 5D - Dox): 1.6 Fold of mESC; p-p53 protein (mESC [3]; Eto lane of blot Fig 5D - Dox): 6.9 Fold of mESC; CHK1 protein (mESC [3]; Eto lane of blot Fig 5D - EST): 1.3 Fold of mESC; RAD51 protein (mESC [3]; Eto lane of blot Fig 5D - EST): 2.4 Fold of mESC; p-CHK2 protein (mESC [3]; Eto lane of blot Fig 5D - EST): 1.3 Fold of mESC; p-KAP1 protein (mESC [3]; Eto lane of blot Fig 5D - EST): 36.8 Fold of mESC; p-RPA32 protein (mESC [3]; Eto lane of blot Fig 5D - EST): 1.0 Fold of mESC; p-p53 protein (mESC [3]; Eto lane of blot Fig 5D - EST): 3.7 Fold of mESC; CHK1 protein (mESC [3]; Fig 4H, Eto, Dox 1, B02, EST): 1.0 Fold of mESC; p-ATR protein (mESC [3]; Fig 4H, Eto, Dox 1, B02, EST): 1.6 Fold of mESC; p-CHK1 protein (mESC [3]; Fig 4H, Eto, Dox 1, B02, EST): 2.3 Fold of mESC; p-RPA32 protein (mESC [3]; Fig 4H, Eto, Dox 1, B02, EST): 1.2 Fold of mESC; p-p53 protein (mESC [3]; Fig 4H, Eto, Dox 1, B02, EST): 6.1 Fold of mESC

**Q.** NC(=O)NO [HU, Hydroxyurea] was tested. Which replication fork progression (EC d4) did it give?
**A.** decreased replication fork speed

**Q.** And the replication fork progression (EC d6)?
**A.** decreased replication fork speed

**Q.** What about the replication fork progression (mESC [4]) of the same compound?
**A.** decreased replication fork speed
